Data set [1] has as its system BVDV. The data set is classed as cell-based, bovine viral diarrhea virus.
For data set [2], the system named is BVDV (strain I-N-dIns), noncytopathic. The data set is classed as cell-based, bovine viral diarrhea virus. Particulars: titrated from 0 to 2,000 IU per ml.
For data set [3], the system named is BVDV New York-1 (NY-1) strain. The data set can be described thus: MDBK cells persistently infected with BVDV strain New York-1, virus titer. The settings on record: 200 IU/ml alone. The data set is classed as cell-based, bovine viral diarrhea virus.
For a further data set, the system named is S405T mutant BVDV. It is filed as cell-based, bovine viral diarrhea virus. Particulars: more sensitive.
The test system of another data set is HCV. The settings on record: ribavirin alone; cited from earlier work.
Data set [4] concerns HepG2 human hepatoma cell line. Nature of the data set: Cytotoxicity (cell proliferation) assay, HepG2. The settings on record: rapid cell division; listed as RBV.
The test system of data set [5] is HepG2 cells. Nature of the data set: Incorporation of drug into cellular RNA and DNA.
Data set [6] relates to BVDV. The data set is classed as cell-based, bovine viral diarrhea virus. This is another data set of the same source.
The subject of a further data set is YFV. It is filed as cell-based, yellow fever virus. Particulars: Tables 30b, 30k-30o.
A further data set relates to DENV 2. The data set can be described thus: microbe, parasite or virus in culture. It is filed as cell-based, dengue virus. Particulars: read-out: DENV 2.
The next data set concerns WNV. The data set can be described thus: microbe, parasite or virus in culture. The settings on record: read-out: WNV. It is filed as cell-based, West Nile virus.
For a further data set, the system named is CVB-2. Nature of the data set: organism not typed. The data set is classed as cell-based, Coxsackie B-2 virus. The settings on record: read-out: CVB-2.
In another data set the test system is Sb-1. Nature of the data set: organism not typed. It is filed as cell-based, Sabin type 1 poliomyelitis virus. The settings on record: read-out: Sb-1.
The next data set has as its system REO-1. Nature of the data set: microbe, parasite or virus in culture. The data set is classed as cell-based, double-stranded RNA Reovirus. The settings on record: read-out: REO.
The subject of data set [7] is BVDV. Nature of the data set: Exploratory cell culture studies of mUrd, antiviral efficacy against BVDV. It is filed as cell-based, bovine viral diarrhea virus. Particulars: less potent than mCyd.
Data set [8] relates to wide spectrum of other viruses. The data set can be described thus: Exploratory cell culture studies of mUrd, other viruses. The data set is classed as cell-based.
For data set [9], the system named is variety of cytotoxicity tests. Nature of the data set: Exploratory cytotoxicity tests of mUrd (bone marrow, mitochondrial function, incorporation into nucleic acid). It is filed as cell-based. The settings on record: high concentrations.
Data set [10] relates to MT-4 human T-lymphocyte cells.
A short description of data set [11]: Exposure of chimpanzees to mCyd, serum HPLC. Particulars: after val-mCyd; lower limit of quantification 0.4 μM (100 ng/mL).
The subject of data set [12] is HepG2 cells. Particulars: 10 μM; cell type not stated; cited from earlier work.
The target in the next data set is human DNA polymerase β (Homo sapiens, UniProt P06746). The data set can be described thus: Inhibition of human DNA polymerase β. The data set is classed as biochemical.
The next data set addresses T1, human DNA polymerase γ (Homo sapiens, UniProt P54098).
T1 sequence (P54098 1-1239): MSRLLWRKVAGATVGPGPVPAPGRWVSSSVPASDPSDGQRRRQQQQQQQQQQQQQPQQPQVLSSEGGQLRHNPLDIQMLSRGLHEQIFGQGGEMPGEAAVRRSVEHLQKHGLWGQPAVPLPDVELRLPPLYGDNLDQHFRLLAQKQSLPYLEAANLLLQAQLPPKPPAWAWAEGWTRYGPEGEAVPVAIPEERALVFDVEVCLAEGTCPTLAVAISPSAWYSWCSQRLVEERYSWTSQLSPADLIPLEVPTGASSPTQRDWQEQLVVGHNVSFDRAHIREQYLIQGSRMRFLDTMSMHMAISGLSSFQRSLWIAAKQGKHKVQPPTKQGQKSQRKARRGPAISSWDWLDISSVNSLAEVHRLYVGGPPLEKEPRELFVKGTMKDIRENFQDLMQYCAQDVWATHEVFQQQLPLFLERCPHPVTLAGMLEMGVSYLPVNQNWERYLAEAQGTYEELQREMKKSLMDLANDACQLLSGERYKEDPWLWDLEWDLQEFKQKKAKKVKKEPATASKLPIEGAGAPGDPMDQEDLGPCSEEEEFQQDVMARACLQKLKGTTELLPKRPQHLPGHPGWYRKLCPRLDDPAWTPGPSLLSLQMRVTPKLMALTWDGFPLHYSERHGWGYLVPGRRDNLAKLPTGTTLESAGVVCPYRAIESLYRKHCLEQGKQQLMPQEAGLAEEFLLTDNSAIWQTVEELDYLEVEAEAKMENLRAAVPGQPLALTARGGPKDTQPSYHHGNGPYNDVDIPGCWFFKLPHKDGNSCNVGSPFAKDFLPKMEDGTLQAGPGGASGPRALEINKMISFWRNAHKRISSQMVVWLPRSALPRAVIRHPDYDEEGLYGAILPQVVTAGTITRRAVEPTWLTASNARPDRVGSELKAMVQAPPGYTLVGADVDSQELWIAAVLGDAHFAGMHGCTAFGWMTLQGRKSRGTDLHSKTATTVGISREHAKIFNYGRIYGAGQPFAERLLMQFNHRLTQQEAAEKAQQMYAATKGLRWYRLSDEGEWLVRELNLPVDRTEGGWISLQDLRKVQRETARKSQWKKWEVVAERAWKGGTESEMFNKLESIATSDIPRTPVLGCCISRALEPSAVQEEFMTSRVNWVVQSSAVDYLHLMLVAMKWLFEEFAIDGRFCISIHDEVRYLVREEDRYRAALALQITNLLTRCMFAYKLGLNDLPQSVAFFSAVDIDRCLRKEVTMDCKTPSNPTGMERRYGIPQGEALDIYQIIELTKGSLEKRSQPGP
Nature of the data set: biochemical.

Another data set deals with human DNA polymerase α (Homo sapiens, UniProt P09884). The data set can be described thus: Inhibition of human DNA polymerase α. It is filed as biochemical.
Chain of human DNA polymerase α (P09884 whole entry): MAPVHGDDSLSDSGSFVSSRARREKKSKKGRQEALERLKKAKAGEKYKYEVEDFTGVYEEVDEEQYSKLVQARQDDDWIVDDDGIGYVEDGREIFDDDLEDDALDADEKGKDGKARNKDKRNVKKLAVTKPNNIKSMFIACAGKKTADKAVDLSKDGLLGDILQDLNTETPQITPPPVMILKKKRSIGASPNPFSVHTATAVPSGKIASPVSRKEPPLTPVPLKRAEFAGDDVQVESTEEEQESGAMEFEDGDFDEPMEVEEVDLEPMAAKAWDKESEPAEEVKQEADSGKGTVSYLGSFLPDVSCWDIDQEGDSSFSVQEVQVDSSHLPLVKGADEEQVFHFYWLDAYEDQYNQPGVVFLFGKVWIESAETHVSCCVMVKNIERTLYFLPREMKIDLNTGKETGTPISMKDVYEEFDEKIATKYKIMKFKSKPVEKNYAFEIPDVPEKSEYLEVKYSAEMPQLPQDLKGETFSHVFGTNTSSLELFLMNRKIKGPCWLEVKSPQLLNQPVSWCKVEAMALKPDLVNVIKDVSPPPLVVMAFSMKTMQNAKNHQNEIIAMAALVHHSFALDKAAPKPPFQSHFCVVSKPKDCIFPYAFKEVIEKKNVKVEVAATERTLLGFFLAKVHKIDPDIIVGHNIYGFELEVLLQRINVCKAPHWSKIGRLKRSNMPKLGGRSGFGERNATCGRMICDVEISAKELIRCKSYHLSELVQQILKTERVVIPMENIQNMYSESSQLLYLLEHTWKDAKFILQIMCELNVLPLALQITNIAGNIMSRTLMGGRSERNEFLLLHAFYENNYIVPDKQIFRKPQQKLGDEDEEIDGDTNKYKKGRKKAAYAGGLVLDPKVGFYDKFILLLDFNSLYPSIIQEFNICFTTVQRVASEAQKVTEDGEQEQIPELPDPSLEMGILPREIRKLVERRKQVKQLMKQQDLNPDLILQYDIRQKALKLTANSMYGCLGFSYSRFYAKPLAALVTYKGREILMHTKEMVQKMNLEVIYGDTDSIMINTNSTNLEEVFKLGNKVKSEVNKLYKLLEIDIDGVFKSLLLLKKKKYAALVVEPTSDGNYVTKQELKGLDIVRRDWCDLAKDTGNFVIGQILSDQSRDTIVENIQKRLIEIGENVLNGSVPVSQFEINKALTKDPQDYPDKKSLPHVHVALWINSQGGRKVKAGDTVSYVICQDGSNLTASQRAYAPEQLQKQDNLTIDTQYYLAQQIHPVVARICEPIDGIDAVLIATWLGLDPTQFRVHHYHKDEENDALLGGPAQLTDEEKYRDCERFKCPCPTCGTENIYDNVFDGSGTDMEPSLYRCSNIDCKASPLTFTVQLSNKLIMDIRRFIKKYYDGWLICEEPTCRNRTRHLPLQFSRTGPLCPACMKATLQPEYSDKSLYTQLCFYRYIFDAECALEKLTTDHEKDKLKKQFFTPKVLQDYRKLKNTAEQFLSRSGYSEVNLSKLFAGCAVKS

Like-named read-outs stand apart in the source and are kept apart here. Marks after values point to notes of the source that are not given here. Starred links: 1 amine or outer side, 2 acyl side, 3 side chain; linkers in the order of their positions; H or OH if unused. Positions of bridges follow the written chain, without caps; N, C: chain ends. Non-standard residues stand in square brackets, D forms with d. Residues, ends and D or L forms follow the SMILES beside them. Chains are numbered I, II in the order given. Actinocin(9to1) = Cc1c2oc3c(C)ccc(C(=O)[*:1])c3nc-2c(C(=O)[*:2])c(N)c1=O; NMeV = CN[C@H](C(=O)O)C(C)C; Sar = CNCC(=O)O

In turn, interferon alpha 2b had an EC50 in the data set with BVDV [1] of 2.6 IU per ml. In the data set with BVDV [1] (even at 1000 IU per ml), this compound registered a viral reduction of no more than 2 logs. Moreover, the “reduction in viral titer” value in [2] was 0.1 log. Further, the “reduction in virus titer” value in data set [3] is given as “approximately 0.1 log10”. The “sensitivity of the mutant relative to wild-type” value in the data set on S405T mutant BVDV was roughly 40 fold.
`NC(=O)c1ncn([C@@H]2O[C@H](CO)[C@@H](O)[C@H]2O)n1` [ribavirin, 1-β-D-ribofuranosyl-1-1,2,4-triazole-3-carboxamide]: in the data set on HCV, the “effect on serum levels of HCV-RNA” value was “does not lower serum levels of HCV-RNA” and the “patients with serum amino transferase levels reduced to normal” value is given as 40%. Further, the midpoint of cytotoxicity in [4], the CC50, lay at 36 µM. In the data set on HepG2 cells [5] (10 μM [3H] drug, 30 hours), the “Incorporated drug amount, DNA” value is 0.0120^b pmole/μg DNA and the “Incorporated drug amount, RNA” value was 0.0132^c pmole/μg RNA. Also, the “incorporation into both DNA and RNA, level relative to mCyd” value in the data set with HepG2 cells [5] (higher than mCyd) is on record as 10 fold.
For `C[C@@]1(O)[C@H](O)[C@@H](CO)O[C@H]1n1ccc(=O)[nH]c1=O` [Compound N, β-D-2′-C-methyl-uracil], the EC50 with BVDV [6] is 18 µM; in the data set on YFV, 100 µM; in the data set on DENV 2 it was no less than 100 µM; with WNV, 80 µM; with CVB-2, greater than 100 µM; with Sb-1 it was 55 µM. Besides, in the data set with REO-1, the EC50 is greater than 100 µM. In addition, in the data set with BVDV [7], the “potency against BVDV relative to mCyd” value was “about 10 fold”. Moreover, the “antiviral activity against a wide spectrum of other viruses” value in [8] is on record as “essentially no antiviral activity”. Further, in [9], the “result in cytotoxicity tests” value is “negative”. The same compound had a CC50 in [10] greater than 100 µM. Besides, in data set [11], the “mUrd in sera samples” value was “No mUrd was detected”.
Consider `O=c1[nH]c(=O)n([C@@H]2O[C@H](CO)[C@@H](O)[C@@H]2F)cc1I` [FIAU, 1,-2′-deoxy-2′-fluoro-1-β-D-arabinofuranosyl-5-iodo-uracil], for which, in the data set with HepG2 cells [12], the “increase in lactic acid production over control cells” value is reported as 100%.
Take `C[C@@]1(O)[C@H](O)[C@@H](COP(=O)(O)OP(=O)(O)OP(=O)(O)O)O[C@H]1n1ccc(N)nc1=O` [mCyd-TP, 2′-C-methyl-cytidine-5′-triphosphate]: the figures for the 50% inhibitory concentration (IC50) at human DNA polymerase β and at human DNA polymerase γ were no less than 883 µM and no less than 929 µM, respectively.
Turning to `Nc1ccn([C@H]2CC[C@@H](COP(=O)(O)OP(=O)(O)OP(=O)(O)O)O2)c(=O)n1` [ddC-TP], the half-maximal inhibitory concentration (IC50) was 78 ± 23.4 µM at human DNA polymerase α, 4.8 ± 1 µM on human DNA polymerase β and 2.7 ± 1 µM at human DNA polymerase γ.
On to `Cc1c2oc3c(C)ccc(C(=O)N[C@@H]4C(=O)N[C@H](C(C)C)C(=O)N5CCC[C@H]5C(=O)N(C)CC(=O)N(C)[C@@H](C(C)C)C(=O)O[C@@H]4C)c3nc-2c(C(=O)N[C@@H]2C(=O)N[C@H](C(C)C)C(=O)N3CCC[C@H]3C(=O)N(C)CC(=O)N(C)[C@@H](C(C)C)C(=O)O[C@@H]2C)c(N)c1=O` [Act. D, actinomycin D] (I: T[dV]P[Sar][NMeV] / II: T[dV]P[Sar][NMeV]; ester I:1-I:C, II:1-II:C; linker I:N-II:N via Actinocin(9to1)), for which the IC50 against human DNA polymerase α was 5.8 ± 3.1 µM; at human DNA polymerase β, 7.9 ± 3 µM; on human DNA polymerase γ it was 15.5 ± 4 µM.

Source of the values: US7625875B2 (priority 2002, dated 2009).
